Test [1] is described as follows: Cytotoxicity against human KKU-M156 cells by SRB assay. Type of test: functional, cell-based.
A further test relates to HepG2. In words: Cytotoxicity against human HepG2 cells by SRB assay. It is filed as functional, cell-based.

For four molecules, IC50 results are on record in ChEMBL document CHEMBL4387793, “Styrenes from the Seeds of Atalantia monophylla” (J Nat Prod, 2019).

Turning to `COc1cc(OC)c2c(c1)O[C@@H](c1c(O)cc(OC)cc1OC)C[C@@H]2C`, the half-inhibitory concentration (IC50) (in test [1]; in the test on HepG2) was under 10 µM in each case.
Take `COc1cc(OC)c(/C=C/[C@H](C)c2c(OC)cc(OC)cc2OC)c(OC)c1`: the IC50 (in test [1]; in the test with HepG2) was under 10 µM each time.
For the molecule `COc1cc(OC)c([C@H]2CC[C@H]2c2c(OC)cc(OC)cc2OC)c(OC)c1`, the IC50 (in test [1]; with HepG2) was under 10 µM in each case.
`COc1cc(OC)c2c(c1)O[C@@H](c1c(OC)cc(OC)cc1OC)C[C@@H]2C`: the IC50 (in test [1]; in the test with HepG2) was under 10 µM in each case.
